These results are taken from patent publication US5215983A, “Carbapenem compounds” (Fujisawa Pharmaceutical Co., Ltd., priority 1989, dated 1993).

The subject of this experiment is P. aeruginosa 2. In words: in vitro Antimicrobial Activity (two-fold agar-plate dilution method). In kind it is cell-based. To be noted: Pseudomonas aeruginosa, 10^6 viable cells per ml, heart infusion agar, 37° C. for 20 hours, read-out: MIC (minimal inhibitory concentration). As for the experimental part: in vitro Antimicrobial Activity was determined by the two-fold agar-plate dilution method as described blow.
One loopful of an overnight culture of a test strain in Trypticase-soy broth (10^6 viable cells per ml) was streaked on heart infusion agar (HI-agar) containing graded concentrations of the test compound, and the minimal inhibitory concentration (MIC) was expressed in terms of μg/ml after incubation at 37° C. for 20 hours.

In the case of `C[C@@H](O)[C@H]1C(=O)N2C(C(=O)O)=C(S[C@@H]3CN[C@H](CN4CCCn5c4cc[n+]5C)C3)[C@H](C)[C@H]12` [Example 1-3, (4R,5S,6S)-6-[(1R)-1-hydroxyethyl]-4-methyl-3-[(2S,4S)-2-{1-methyl-4,5,6,7-tetrahydro-4-pyrazolo[1,5-a]pyrimidinio}methylpyrrolidin-4-yl]thio-7-oxo-1-azabicyclo[3.2.0]-hept-2-ene-2-carboxylic acid chloride], the MIC was determined as 0.39 µg/mL.
